Data published in PubChem BioAssay (NCI).
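Results reflect a 48-hour exposure of cells in 96-well plates to compound at five concentrations. TGI denotes the concentration required for complete inhibition of growth.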

Columns and labels:
Assay in all cases: inhibition of tumour cell growth, NCI panel, 48 h
[1] = system: A549 NSCLC
[2] = system: COLO 205 colon
[3] = system: HCT-116 colon
[4] = system: HCT-15 colon
[5] = system: HL-60(TB) leukemia
[6] = system: HOP-92 NSCLC
[7] = system: HS 578T breast
[8] = system: M14 melanoma
[9] = system: MALME-3M melanoma
[10] = system: MCF7 breast
[11] = system: MOLT-4 leukemia
[12] = system: NCI-H522 lung
[13] = system: OVCAR-5 ovarian
[14] = system: PC-3 prostate
[15] = system: SF-295 CNS
[16] = system: SNB-19 CNS
[17] = system: ACHN renal
[18] = system: SK-MEL-2 melanoma
[19] = system: UO-31 renal

Compound	TGI [1]	TGI [2]	TGI [3]	TGI [4]	TGI [5]	TGI [6]	TGI [7]	TGI [8]	TGI [9]	TGI [10]	TGI [11]	TGI [12]	TGI [13]	TGI [14]	TGI [15]	TGI [16]	TGI [17]	TGI [18]	TGI [19]
CCNC1=C(NC(=O)c2ccccc2)C(=O)c2ccccc2C1=O	> 100 µM	> 100 µM	> 100 µM	> 100 µM	> 100 µM	> 100 µM	> 100 µM	> 100 µM	43 µM	> 100 µM	> 100 µM	79.2 µM	> 100 µM	78.9 µM	> 100 µM	> 100 µM			
Nc1cccc(OCC2CCCN3CCCCC23)c1 (configuration not stated)	45.1 µM	36.8 µM	30.4 µM	31.5 µM	39.7 µM	87.4 µM	35.2 µM	41.4 µM	40.4 µM	37.1 µM	39.2 µM		35.2 µM	37.7 µM	33.8 µM	32.8 µM	31.9 µM	44.9 µM	75.2 µM
OCCCCn1cc(Cn2ncc3c(NCc4ccccc4)ncnc32)nn1	> 100 µM	> 100 µM	> 100 µM	> 100 µM		> 100 µM	> 100 µM	> 100 µM	> 100 µM	> 100 µM	> 100 µM	> 100 µM	> 100 µM	> 100 µM	> 100 µM	> 100 µM	> 100 µM	> 100 µM	> 100 µM
O=[N+]([O-])c1cc(-[n+]2cc([O-])on2)ccc1Cl	> 100 µM	> 100 µM	39.8 µM	73.7 µM	> 100 µM	42.1 µM	31.3 µM	41.8 µM	32.9 µM	43.3 µM		31.7 µM	32.4 µM	> 100 µM	51.5 µM	27.1 µM	29.5 µM	46.3 µM	31 µM
O=C(CC(C(=O)c1ccsc1)c1ccsc1)c1ccsc1 (configuration not stated)	> 100 µM	> 100 µM	> 100 µM	> 100 µM	> 100 µM		> 100 µM	> 100 µM	> 100 µM	> 100 µM	> 100 µM			> 100 µM	> 100 µM	> 100 µM	> 100 µM	> 100 µM	> 100 µM
COc1ccc(-c2csc(Cc3nc4c(Br)cc(Br)cc4c(=O)n3-c3ccc(OC)cc3)n2)cc1	> 100 µM	> 100 µM	> 100 µM	> 100 µM		> 100 µM	> 100 µM	63.1 µM		> 100 µM	> 100 µM		> 100 µM	> 100 µM	> 100 µM	50.6 µM	> 100 µM	> 100 µM	> 100 µM
CCC1(CC)N=C(C(F)(F)F)c2cc(C(=O)C(F)(F)F)c3ccccc3c2N1	60.7 µM	28.4 µM	16.1 µM	> 100 µM	8.25 µM	10.2 µM	32.2 µM	25.3 µM	57.3 µM	27.4 µM		11.1 µM	58.1 µM	> 100 µM	9.6 µM	> 100 µM	> 100 µM	10.4 µM	16.9 µM
O=c1[nH][nH]c(=O)n1/N=C/c1ccccc1	> 100 µM	> 100 µM	> 100 µM	> 100 µM	> 100 µM	> 100 µM	> 100 µM	> 100 µM		> 100 µM	> 100 µM		> 100 µM	> 100 µM	> 100 µM	> 100 µM	> 100 µM	> 100 µM	> 100 µM
COC(=O)c1ccc(C)cc1CC1Cc2cccc(C)c2C1=O (configuration not stated)	> 100 µM	30.7 µM	20.8 µM	12.5 µM		58.7 µM	39.9 µM	23.2 µM	31.3 µM	7.38 µM	18.4 µM	6.57 µM	> 100 µM	64.8 µM	72.2 µM	> 100 µM	97.6 µM	17.1 µM	56.7 µM
CCOC(=O)c1c(N2CCCC2)[nH]c(=O)c(C(c2ccc(Cl)c([N+](=O)[O-])c2)c2c(O)c(C(=O)OCC)c(N3CCCC3)[nH]c2=O)c1O	> 100 µM	> 100 µM	> 100 µM	> 100 µM		58.3 µM	> 100 µM	42.7 µM	84.6 µM	> 100 µM	> 100 µM	74.1 µM	> 100 µM	83.9 µM	> 100 µM	49.9 µM	> 100 µM		66.6 µM
CN1C(=O)C(C(=O)Nc2ccccn2)C2C[C@@]1(C)Oc1ccccc12 (some centres not stated)	> 100 µM	> 100 µM	> 100 µM	> 100 µM	> 100 µM	> 100 µM	> 100 µM	> 100 µM	> 100 µM		> 100 µM	> 100 µM	> 100 µM	> 100 µM	> 100 µM	> 100 µM	> 100 µM	> 100 µM	> 100 µM
CC(=O)Oc1c2ccsc2c(OC(C)=O)c2ccsc12		3.38 µM	2.21 µM	1.74 µM	> 26.5 µM	2.75 µM	0.951 µM	0.94 µM	0.889 µM	2.31 µM	4.47 µM	1.15 µM			2.41 µM	3.17 µM	2.28 µM	1.98 µM	2.57 µM
CCOC(=O)OC1C(Br)C2CCC1(C)C2(C)C (configuration not stated)	30.1 µM	26.2 µM	20.9 µM	27.5 µM	20.1 µM	27.6 µM	32.5 µM	25.6 µM	31.3 µM	31.3 µM	16.6 µM	30.2 µM	31.7 µM	23.6 µM	29.5 µM	28.3 µM	29.2 µM		24.6 µM
N#CC(C#N)=c1c2ccccc2c(=C(C#N)C#N)c2ccccc12	> 100 µM	37.5 µM	34.4 µM	65 µM	59.2 µM	88.6 µM	47.7 µM	32.8 µM		> 100 µM	> 100 µM		43.3 µM	30.4 µM		32.4 µM	43.3 µM	32.9 µM	
c1ccc(-c2c(-c3cccs3)[nH]c(-c3cccs3)c2-c2ccccn2)nc1	72.8 µM	30.6 µM	> 100 µM	40.4 µM	> 100 µM	55.4 µM	59.7 µM	40.7 µM	77.1 µM		38.3 µM		66.6 µM	30.8 µM	39.2 µM	> 100 µM	> 100 µM		57.3 µM
O=C1c2ccccc2C(=O)c2c(NC(=O)C3CC3)ccc(NC(=O)C3CC3)c21	> 100 µM	> 100 µM	> 100 µM	> 100 µM	> 100 µM		> 100 µM		> 100 µM	> 100 µM	> 100 µM	> 100 µM	> 100 µM	> 100 µM	> 100 µM	> 100 µM	> 100 µM	> 100 µM	> 100 µM
COC1=C2CC(C)CC(OC)C(OC(=O)CN)[C@H](C)/C=C(\C)C(OC(N)=O)C(OC)/C=C\C=C(/C)C(=O)NC(=CC1=O)C2=O (some centres not stated)	21.8 µM	0.559 µM	3.45 µM	12.6 µM		1.27 µM	20.2 µM	10.8 µM	1.59 µM	2.01 µM	1.57 µM	1.15 µM	13.8 µM	13.3 µM	17.5 µM	20.7 µM	13.4 µM	14.7 µM	11.6 µM
Cc1nc2cc3ccccc3cc2[nH]c1=O	> 100 µM	> 100 µM	> 100 µM	> 100 µM	> 100 µM	80.2 µM		> 100 µM	> 100 µM	> 100 µM	> 100 µM	> 100 µM	> 100 µM	> 100 µM	> 100 µM	> 100 µM		> 100 µM	> 100 µM
CO[C@@]12C[C@@H](C)[C@]34O[C@H]3C[C@]3(C)O[C@]43CC1=C(C)C(=O)O2	> 100 µM	> 100 µM	> 100 µM	> 100 µM		> 100 µM	> 100 µM	> 100 µM	> 100 µM	> 100 µM		> 100 µM	> 100 µM	> 100 µM	> 100 µM	> 100 µM	> 100 µM	> 100 µM	> 100 µM
COc1ccc(N=Nc2ccc3oc(=O)c(C(=O)Nc4ccccc4C)cc3c2)cc1		> 10 µM		> 10 µM		> 10 µM	> 10 µM	> 10 µM	> 10 µM	> 10 µM	> 10 µM	> 10 µM	> 10 µM	> 10 µM	> 10 µM		> 10 µM	> 10 µM	> 10 µM
Nc1cc2ncnn2c(SCC(=O)N/N=C/C(Br)=C\c2ccccc2)n1	60.1 µM	41.1 µM	> 100 µM	37.1 µM	62.4 µM		> 100 µM		28.3 µM	38.8 µM	71.7 µM	22.9 µM	55.2 µM	27.7 µM	67.7 µM	> 100 µM	62.7 µM		32 µM
CCOC(=O)CSC1NC(C(=O)OC)CC1OC (configuration not stated)	> 100 µM	> 100 µM	> 100 µM	> 100 µM		> 100 µM	> 100 µM	> 100 µM	> 100 µM	> 100 µM	> 100 µM	> 100 µM	> 100 µM	> 100 µM	> 100 µM	> 100 µM	> 100 µM	> 100 µM	> 100 µM
C=CCOCn1cc(F)c(=O)[nH]c1=O	> 100 µM	> 100 µM	> 100 µM	> 100 µM	> 100 µM		> 100 µM	> 100 µM	> 100 µM	> 100 µM	> 100 µM	> 100 µM		> 100 µM	> 100 µM	> 100 µM	> 100 µM		> 100 µM
Cc1cc(S(=O)(=O)Nc2nnc3ccccn23)c(S)cc1Cl	> 100 µM	> 100 µM	> 100 µM	> 100 µM	> 100 µM		> 100 µM	> 100 µM	> 100 µM	> 100 µM	> 100 µM	> 100 µM	> 100 µM	> 100 µM	64.8 µM	> 100 µM	> 100 µM	> 100 µM	> 100 µM
COc1ccccc1/C=C1\S/C(=N/Nc2nc(C)c(C(C)=O)s2)NC1=O	> 100 µM	46.2 µM	> 100 µM		63.2 µM	48 µM	70.1 µM	> 100 µM		67 µM	> 100 µM		> 100 µM	> 100 µM	> 100 µM	> 100 µM	> 100 µM	> 100 µM	90.4 µM
Nc1ncc(C=O)c(NCC2(CO)CCC2)n1	> 100 µM	> 100 µM	> 100 µM	> 100 µM	> 100 µM	87.8 µM	> 100 µM		> 100 µM	> 100 µM	> 100 µM	> 100 µM	> 100 µM	> 100 µM	> 100 µM			> 100 µM	> 100 µM
CCc1c(CNC2=NCCN2)c(CC)c(CNC2=NCCN2)c(CC)c1CNC1=NCCN1	> 100 µM	> 100 µM	> 100 µM	> 100 µM		> 100 µM	> 100 µM	> 100 µM	> 100 µM	> 100 µM	> 100 µM	> 100 µM	> 100 µM	> 100 µM	> 100 µM	> 100 µM	> 100 µM	> 100 µM	> 100 µM
